Source: the METLIN SMRT retention time set (Domingo-Almenara et al. 2019)

Assay: gradient 5% acetonitrile 3 min, to 50% in 2 min, to 85% in 15 min, held 3 min, 100 µL/min
Conditions: column: Zorbax Extend-C18 2.1 x 50 mm; eluents: water / acetonitrile, 0.1% formic acid
Summary of the method: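 The mobile phases were water and acetonitrile, each with 0.1% formic acid, pumped at 100 μL/min through a Zorbax Extend-C18 column (2.1 × 50 mm, 1.8 μm). Pure standards were injected as mixtures of ~100 molecules and detected by a quadrupole time-of-flight mass spectrometer in positive and negative ionization mode. Retention time came from computationally picked adduct peaks, each inspected by hand.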

RP-LC retention time | Structure (SMILES)
900 s | Cc1nc2c(NC(=O)c3ccc(C(F)(F)F)s3)cccn2n1
849 s | O=C(c1cccc2[nH]ccc12)N1CCC2(CC1)N=C(c1cccc(Br)c1)NO2
1000 s | Cc1cccc(C(=O)Nc2cc(-c3cccs3)no2)c1
670 s | CCN1C(=O)c2ccccc2Oc2ccc(C(=O)NCc3ccc(N(C)C)cc3)cc21
575 s | CC(=O)N1CCc2sc(C(=O)N3CCN(c4ccccn4)CC3)cc2C1
699 s | O=C(NC1CC1)[C@@H]1C[C@H](Oc2ccccc2)CN1C(=O)c1cccs1
746 s | Cn1c(C(=O)NCCCN2CCCCC2)cc2c(-c3cccs3)nn(-c3ccccc3)c21
857 s | Cc1ccc(CN2C[C@@H]3C(=O)N(Cc4ccc5c(c4)OCO5)C(=O)[C@@H]3C2)c(C)c1
883 s | CCn1nc(C)cc1C(=O)N(Cc1ccccn1)c1nc2c(OC)ccc(OC)c2s1
1180 s | Cc1ccc(-c2noc(-c3nc(Cc4ccc(F)cc4)no3)n2)cc1
765 s | COc1ccc(-c2nc(Cn3cnc4ccccc4c3=O)no2)c(OC)c1
971 s | CCn1cc(-c2nc(C)c(C(=O)Nc3cccc(C)c3)s2)c2cccnc21
749 s | COCCC1CCN(C(=O)c2cc(F)ccc2F)CC1
785 s | CCOC(=O)c1[nH]c(C)c(CCC(=O)N2CCC(C(=O)NCc3ccc(F)cc3)CC2)c1C
724 s | COc1ccccc1NC(=O)N1CCN(c2ccc(-c3noc(C)n3)cn2)CC1
571 s | CCN1CCN(Cc2nc3cc(NC(=O)CC(C)C)ccc3n2C(C)C)CC1
708 s | O=C(NCc1ccc(F)cc1Cl)c1cn2ccccc2n1
686 s | COc1ccc(-c2cc3c4nnc(CCC(=O)N5CCCC5)n4ccn3n2)cc1
591 s | CCNC(=O)C1CCN(c2nc3ccc(-c4cccnc4)nc3s2)CC1

RP-LC retention time | Structure (SMILES)
624 s | CCOC(=O)c1c(C)c(CCC(=O)NCCN2CCCCC2)n(C)c1C
813 s | Cc1ccc(N2C=C(C(=O)N3CCCC3)S(=O)(=O)c3ccccc32)cc1F
1000 s | CC(C)c1cc(C(=O)Nc2cccc(C(F)(F)F)c2)nn1C1CCS(=O)(=O)C1 (centres undefined)
841 s | COc1cc2oc3cc(C)oc(=O)c3c2cc1OC
852 s | Cc1ccc(NC(=O)C2Oc3ccccc3NC2=O)c(Br)c1 (centres undefined)
576 s | O=C(NCCN1CCc2ccccc2C1)c1cccc(N2CCNC(c3ccccc3)C2)n1 (centres undefined)
1020 s | O=C(CN1C(=O)C(C(=O)N2CCCC2)Sc2ccccc21)Nc1cccc(F)c1 (centres undefined)
658 s | CC(=O)N1CCCc2cc(S(=O)(=O)N3CCC(C(=O)NCC4CCCO4)CC3)ccc21 (centres undefined)
687 s | Cc1nc(S(=O)(=O)N2CCC(C(=O)N3CCN(c4ccccc4)CC3)CC2)cn1C
620 s | CC(CCc1ccco1)NC(=O)C1CCc2nc(N3CCCC3)ncc2C1 (centres undefined)
742 s | COc1ccc2[nH]c(C(=O)N3CC(n4cc(COCC5CC5)nn4)C3)cc2c1
980 s | CC1(C(=O)NCc2ccccc2)CCCN(C(=O)Nc2ccc(Br)cc2)C1 (centres undefined)
664 s | CCC(C)N(CCNC(=O)Cc1noc2ccccc12)Cc1ccco1 (centres undefined)
738 s | Cc1ccc(NC(=O)CSc2nccc(N3CCCCCC3)n2)cc1F
642 s | CCc1ccc(-c2nc3ccc(C)cn3c2CN2CCC(F)(COC)CC2)cc1
637 s | O=C(NCCCN1CCCC1=O)c1ccc(-n2nnc3cccnc32)cc1
560 s | Cn1c(N)c(C(=O)c2ccco2)c(=O)n(C)c1=O
754 s | CSc1ccccc1NC(=O)C(=O)NCC1CCN(C(=O)COc2ccccc2)CC1

The remaining lines, values behind:

Structure (SMILES) | RP-LC retention time
CCOC(=O)c1ccccc1NC(=O)Cn1cnc2nc(N3CCCC(C(=O)NC)C3)sc2c1=O (centres undefined) | 640 s
CN(C)CCNC(=O)c1ccc2c(c1)N(Cc1ccccc1)CCS2 | 689 s
O=C(Nc1ccc(N2CCCS2(=O)=O)cc1)NC(c1ccccc1)c1ccccc1 | 814 s
CCn1c(C(=O)N2CCCC(C(=O)N3CCc4ccccc4C3)C2)cc2sccc21 (centres undefined) | 966 s
COc1cc(C(=O)Nc2cccc(-c3cn4ccsc4n3)c2)c([N+](=O)[O-])cc1OC | 658 s
COc1cccc2cc(C(=O)N3CCN(CCn4cccn4)CC3)oc12 | 571 s
Cc1cc(C)n(-c2ccnc(N3CCN(CC(=O)NC(C)C)CC3)n2)n1 | 624 s
Cn1ncc2c3ccccc3n(CC(=O)NCCCN3CCCCCC3)c2c1=O | 561 s
Cn1c(CN2CCN(C(=O)Nc3ccc4c(c3)OCO4)CC2)nc2cc(C(=O)N3CCCC3)ccc21 | 607 s
COc1ccccc1NC(=O)Cn1c(=O)c2cc(-c3ccco3)nn2c2ncccc21 | 804 s
COc1cccc(CC(=O)Nc2ccc(-c3nc(Cn4cccn4)c(C)o3)cc2)c1 | 848 s
CCc1ccccc1NC(=O)Cc1nnc(-c2cnccn2)o1 | 685 s
c1ccc(-c2cn(CCC3CCCCN3)nn2)cc1 (centres undefined) | 509 s
O=S(=O)(c1ccc(-c2nnc(C3CCCC3)o2)o1)N1CCN(C2CCCCC2)CC1 | 696 s
COCCCNC(=O)c1nc(Nc2ccc(F)cc2)c2ccccc2n1 | 696 s
Cn1ncc(N2CCCC(C(=O)NC3CCCCCCC3)C2)cc1=O (centres undefined) | 751 s
Cc1ccc(CNC(=O)C2CCN(c3cncnc3N3CCOCC3)CC2)cc1 | 631 s
O=C(NCc1ccc(F)cc1Cl)C1CCc2nc(N3CCOCC3)ncc2C1 (centres undefined) | 768 s
O=C(Cn1nc2c3cc(-c4ccc(F)cc4)nn3ccn2c1=O)NCc1ccco1 | 796 s
Cc1ccc2nc3c(c(C(=O)NC(C)C)c2c1)CCCC3 | 618 s
CCOc1cc(-c2nc(C3CC(=O)N(c4ccc(OC)cc4)C3)no2)cc(OCC)c1OCC (centres undefined) | 1040 s
Cc1noc(-c2cc(S(=O)(=O)N3CCC(C)CC3)c(C)s2)c1C | 1160 s
COC(=O)c1c(C)[nH]c(C(=O)N2CCCC(C(=O)N3CCCC3)C2)c1C (centres undefined) | 663 s
CCNC(=O)N1CC(C(=O)N(C)C)C2(CCOCC2)C1 (centres undefined) | 520 s
Cc1ccc(-c2noc(C3CCCN3S(=O)(=O)c3ccc4c(c3)CCC4)n2)cc1 (centres undefined) | 1280 s
O=C(CCc1c(-c2ccc(F)cc2)nc2ccccn12)Nc1cccc(Br)c1 | 730 s

Structure (SMILES) | RP-LC retention time
CC(=O)c1ccc(N=NC(C(N)=O)C2NC(C)(C)Cc3ccccc32)cc1 (centres undefined) | 794 s
O=C1NCCCn2nc(C3CCN(C(=O)Nc4cccc(C(F)(F)F)c4)CC3)cc21 | 721 s
O=C(CC1CCN(C(=O)c2ccc3nc(-c4ccccc4)oc3c2)CC1)NCc1ccco1 | 789 s
O=C(NCCCN1CCOCC1)C1CCCN(c2ccc(=O)n(-c3cccc(Cl)c3)n2)C1 (centres undefined) | 610 s
O=C(Nc1ccccc1Br)N1CCC(n2cnc3cccnc32)CC1 | 670 s
CCOc1ccccc1NS(=O)(=O)c1cc2c3c(c1)CCC(=O)N3CCC2 | 548 s
O=C(Cn1cc(-c2ccc(F)cc2)oc1=O)NC1CCN(Cc2ccccc2)CC1 | 632 s
Cc1onc(-c2cccc(Br)c2)c1C(=O)NCCCOC(C)C | 880 s
O=C(OCC(=O)c1ccc(Cl)cc1Cl)c1ccc2ccccc2n1 | 991 s
COc1ccc(-c2cc3n(n2)CCCN(S(=O)(=O)c2cccc(C#N)c2)C3)cc1OC | 814 s
COc1cccc(C(=O)Nc2cc(-c3ccccn3)no2)c1 | 788 s
COc1ccc(NC(=O)Cn2c(C)cc(-c3nnc(C4CC4)o3)c2C)cc1 | 779 s
CCCN(c1ccc(F)cc1)c1nc(C(=O)OCC)nc2ccccc12 | 1080 s
COc1ccc(NC(=O)NCCc2ccsc2)cc1 | 729 s
Cn1c(=O)n(C)c2cc(S(=O)(=O)c3ccc(F)cc3)c(NC(=O)c3cccc(F)c3)cc21 | 896 s
C[C@H]1CCC/C=C/C2C[C@H](O)C[C@H]2[C@H](O)/C=C/C(=O)O1 (some centres undefined) | 732 s
CCCc1cc(N2CCN(C(=O)c3cc(OC)cc(OC)c3)CC2)nc2nncn12 | 576 s
Fc1cccc(CN2CCc3nc(N4CCN(c5ncccn5)CC4)ncc3C2)c1 | 633 s
COc1ccc2nc(C)cc(SCC(=O)Nc3csc4nc(=O)c(C)nn34)c2c1 | 590 s
Cc1ccc(=O)n(CCNC(=O)c2ccc3nsnc3c2)n1 | 619 s
COC(=O)c1ncn2c1C(=O)N(Cc1ccccc1C)C(C)(C(=O)NC1CCCCC1)C2 (centres undefined) | 792 s
COc1cc(OC)c(NC(=O)N2CCCC(C)(C(=O)NCc3ccc(C)cc3)C2)cc1Cl (centres undefined) | 971 s
COc1ccc(-c2cc3n(n2)CCCN(C(=O)Cc2ccsc2)C3)cc1 | 822 s
COC(=O)c1cc(OCC(=O)Nc2ccccc2Cl)c2cc(OC)ccc2n1 | 915 s
Cc1ccc(-c2nc3nc(C)cc(N4CCN(c5ccccn5)CC4)n3n2)cc1 | 629 s
CCOC(=O)C1CCN(C(=O)CCC2CCCN(c3cc(NC4CC4)ncn3)C2)CC1 (centres undefined) | 662 s
